Activity calls are given as the source filed them. No cut-off for these calls is given here.
Legend:
[1] = biological target: Histone deacetylase 3 (Homo sapiens, UniProt O15379); experiment: Inhibition of HDAC3 after 10 mins by fluorometric assay
[2] = biological target: T1, Protein deacetylase HDAC6 (Homo sapiens, UniProt Q9UBN7); experiment: Inhibition of HDAC6 after 10 mins by fluorometric assay
T1 sequence (Q9UBN7 whole entry): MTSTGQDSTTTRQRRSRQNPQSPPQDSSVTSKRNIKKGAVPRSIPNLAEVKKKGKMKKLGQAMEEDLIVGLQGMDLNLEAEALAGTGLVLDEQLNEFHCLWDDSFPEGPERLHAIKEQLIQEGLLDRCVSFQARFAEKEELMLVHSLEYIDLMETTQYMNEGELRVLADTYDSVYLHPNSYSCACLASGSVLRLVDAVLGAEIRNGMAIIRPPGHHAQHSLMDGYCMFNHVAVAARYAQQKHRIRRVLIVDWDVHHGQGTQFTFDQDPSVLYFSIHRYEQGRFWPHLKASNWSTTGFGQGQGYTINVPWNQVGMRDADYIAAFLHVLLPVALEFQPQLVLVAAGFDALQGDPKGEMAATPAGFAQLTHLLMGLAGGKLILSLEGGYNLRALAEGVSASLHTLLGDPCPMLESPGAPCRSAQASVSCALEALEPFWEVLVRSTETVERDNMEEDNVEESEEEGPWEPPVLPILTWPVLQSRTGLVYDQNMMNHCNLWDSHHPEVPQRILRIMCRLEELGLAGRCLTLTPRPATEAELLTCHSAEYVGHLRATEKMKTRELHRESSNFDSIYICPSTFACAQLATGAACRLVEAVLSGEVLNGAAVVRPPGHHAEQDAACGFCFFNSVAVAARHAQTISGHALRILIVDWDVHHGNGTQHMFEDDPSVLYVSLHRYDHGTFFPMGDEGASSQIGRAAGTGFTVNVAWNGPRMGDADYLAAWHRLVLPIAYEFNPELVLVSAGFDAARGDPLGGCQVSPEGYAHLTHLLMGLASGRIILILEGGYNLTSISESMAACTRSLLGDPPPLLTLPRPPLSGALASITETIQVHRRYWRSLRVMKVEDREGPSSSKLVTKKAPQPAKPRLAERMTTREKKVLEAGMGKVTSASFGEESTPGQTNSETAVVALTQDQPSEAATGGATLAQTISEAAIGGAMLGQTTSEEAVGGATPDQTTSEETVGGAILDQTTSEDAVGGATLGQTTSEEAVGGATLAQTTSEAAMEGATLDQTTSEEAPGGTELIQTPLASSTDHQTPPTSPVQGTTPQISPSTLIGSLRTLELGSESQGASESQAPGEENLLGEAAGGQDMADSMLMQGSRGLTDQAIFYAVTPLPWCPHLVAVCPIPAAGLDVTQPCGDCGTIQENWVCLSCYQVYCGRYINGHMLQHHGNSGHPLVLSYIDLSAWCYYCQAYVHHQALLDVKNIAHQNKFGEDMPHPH

[3] = test system: Mus musculus; experiment: Toxicity in FVB mouse assessed as calcium level in blood at 240 pmol/day administered via osmotic pump for 6 to 7 days measured on day 3 by microchemistry (RVb = 2.24 mmol/L); assay type: organism-based; conditions: in vivo, other
[4] = test system: Mus musculus; experiment: Toxicity in FVB mouse assessed as calcium level in blood at 1200 pmol/day administered via osmotic pump for 6 to 7 days measured on day 3 by microchemistry (RVb = 2.24 mmol/L); assay type: organism-based; conditions: in vivo, other
[5] = test system: Mus musculus; experiment: Toxicity in FVB mouse assessed as calcium level in blood at 240 pmol/day administered via osmotic pump for 6 to 7 days measured on day 6 by microchemistry (RVb = 2 mmol/L); assay type: organism-based; conditions: in vivo, other
[6] = test system: Mus musculus; experiment: Toxicity in FVB mouse assessed as calcium level in blood at 1200 pmol/day administered via osmotic pump for 6 to 7 days measured on day 6 by microchemistry (RVb = 2 mmol/L); assay type: organism-based; conditions: in vivo, other
[7] = biological target: T2, Vitamin D3 receptor (Homo sapiens, UniProt P11473)
T2 sequence (P11473 whole entry): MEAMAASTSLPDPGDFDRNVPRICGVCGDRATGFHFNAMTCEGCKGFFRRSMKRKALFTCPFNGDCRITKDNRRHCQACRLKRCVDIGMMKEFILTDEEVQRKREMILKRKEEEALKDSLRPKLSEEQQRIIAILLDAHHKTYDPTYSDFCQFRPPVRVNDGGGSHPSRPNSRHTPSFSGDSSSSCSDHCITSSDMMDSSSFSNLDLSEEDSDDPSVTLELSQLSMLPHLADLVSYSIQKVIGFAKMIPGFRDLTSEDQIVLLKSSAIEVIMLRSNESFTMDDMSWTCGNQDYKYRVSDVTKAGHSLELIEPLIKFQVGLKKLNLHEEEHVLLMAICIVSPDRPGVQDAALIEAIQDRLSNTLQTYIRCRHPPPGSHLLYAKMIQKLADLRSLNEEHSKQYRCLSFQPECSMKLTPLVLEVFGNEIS
Description: Binding affinity to VDR ligand binding domain by fluorescence polarization competition assay

[8] = biological target: Histone deacetylase 2 (Homo sapiens, UniProt Q92769); experiment: Inhibition of HDAC2 after 10 mins by fluorometric assay
[9] = test system: AT84; experiment: Antiproliferative activity against mouse AT84 cells at 100 to 500 nM after 48 hrs by EdU incorporation assay; assay type: functional, cell-based
[10] = Ratio of compound to calcitriol antiproliferative activity against mouse AT84 cells; assay type: functional
[11] = test system: Mus musculus; experiment: Toxicity in FVB mouse assessed as calcium level in blood at 240 pmol/day administered via osmotic pump for 6 to 7 days measured on day 4 by microchemistry (RVb = 2.11 mmol/L); assay type: organism-based; conditions: in vivo, other
[12] = test system: Mus musculus; experiment: Toxicity in FVB mouse assessed as calcium level in blood at 1200 pmol/day administered via osmotic pump for 6 to 7 days measured on day 4 by microchemistry (RVb = 2.11 mmol/L); assay type: organism-based; conditions: in vivo, other
[13] = test system: Mus musculus; experiment: Toxicity in FVB mouse assessed as calcium level in blood at 240 pmol/day administered via osmotic pump for 6 to 7 days measured on day 7 by microchemistry (RVb = […] mmol/L); assay type: organism-based; conditions: in vivo, other
[14] = test system: Mus musculus; experiment: Toxicity in FVB mouse assessed as calcium level in blood at 1200 pmol/day administered via osmotic pump for 6 to 7 days measured on day 7 by microchemistry (RVb = […] mmol/L); assay type: organism-based; conditions: in vivo, other

Sequence of Histone deacetylase 2 (Q92769 whole entry): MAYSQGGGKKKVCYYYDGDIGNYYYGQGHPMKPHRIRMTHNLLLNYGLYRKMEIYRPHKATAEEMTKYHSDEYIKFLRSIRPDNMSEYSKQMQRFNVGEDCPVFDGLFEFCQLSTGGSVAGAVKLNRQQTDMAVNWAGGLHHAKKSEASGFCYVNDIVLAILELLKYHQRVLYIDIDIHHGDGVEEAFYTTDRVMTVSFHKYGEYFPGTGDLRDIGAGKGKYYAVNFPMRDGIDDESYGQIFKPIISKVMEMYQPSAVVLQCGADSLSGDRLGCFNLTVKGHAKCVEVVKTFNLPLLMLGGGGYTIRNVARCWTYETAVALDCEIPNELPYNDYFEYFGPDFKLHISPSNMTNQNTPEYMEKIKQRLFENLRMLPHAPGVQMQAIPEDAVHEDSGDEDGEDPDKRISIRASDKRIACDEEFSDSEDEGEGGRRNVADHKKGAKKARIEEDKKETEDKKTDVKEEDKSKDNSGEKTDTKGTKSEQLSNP
Sequence of Histone deacetylase 3 (O15379 whole entry): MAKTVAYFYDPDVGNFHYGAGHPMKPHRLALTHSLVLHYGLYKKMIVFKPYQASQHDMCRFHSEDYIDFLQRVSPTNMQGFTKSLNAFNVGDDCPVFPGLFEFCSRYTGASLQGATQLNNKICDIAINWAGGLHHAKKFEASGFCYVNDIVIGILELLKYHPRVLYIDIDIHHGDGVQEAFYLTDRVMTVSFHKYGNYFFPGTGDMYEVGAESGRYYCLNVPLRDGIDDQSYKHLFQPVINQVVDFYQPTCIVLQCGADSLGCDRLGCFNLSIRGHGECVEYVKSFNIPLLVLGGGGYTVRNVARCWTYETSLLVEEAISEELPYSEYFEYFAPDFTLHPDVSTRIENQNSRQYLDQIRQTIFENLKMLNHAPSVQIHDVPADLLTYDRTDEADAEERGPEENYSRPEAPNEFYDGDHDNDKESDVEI

Row | Compound | IC50 [1] | IC50 [2] | IC50 [7] | IC50 [8] | Activity [3] | Activity [4] | Activity [5] | Activity [6] | Activity [9] | Ratio [10] | Activity [11] | Activity [12] | Activity [13] | Activity [14]
1 | C[C@H](CCCCNS(C)(=O)=O)[C@H]1CC[C@H]2/C(=C/C=C3C[C@@H](O)C[C@H](O)C3)CCC[C@]12C | 718 µM | 191 µM | 0.321 µM |  | 1.88 mmol/L | 2.01 mmol/L | 2.22 mmol/L | 1.92 mmol/L |  |  |  |  |  | 
2 | C[C@H](CCCC(=O)Nc1ccccc1N)[C@H]1CC[C@H]2/C(=C/C=C3C[C@@H](O)C[C@H](O)C3)CCC[C@]12C | 460 µM | 330 µM | 0.524 µM |  | 1.89 mmol/L | 2.07 mmol/L | 2.05 mmol/L | 2.14 mmol/L |  |  |  |  |  | 
3 | C[C@H](CCCCNS(=O)(=O)C(F)(F)F)[C@H]1CC[C@H]2/C(=C/C=C3C[C@@H](O)C[C@H](O)C3)CCC[C@]12C | 695 µM | 153 µM | 0.014 µM |  |  |  |  |  |  |  |  |  |  | 
4 | C[C@H](CCCNS(C)(=O)=O)[C@H]1CC[C@H]2/C(=C/C=C3C[C@@H](O)C[C@H](O)C3)CCC[C@]12C | 730 µM | 71.3 µM | 0.213 µM |  |  |  |  |  |  |  |  |  |  | 

These reach a lower IC50 [1]. Values come first.

Row | IC50 [1] | IC50 [2] | IC50 [7] | IC50 [8] | Compound | Activity [3] | Activity [4] | Activity [5] | Activity [6] | Activity [9] | Ratio [10] | Activity [11] | Activity [12] | Activity [13] | Activity [14]
5 | 104 µM | 81.1 µM | 0.185 µM | 189 µM | C[C@H](CCCCC(=O)Nc1ccccc1N)[C@H]1CC[C@H]2/C(=C/C=C3C[C@@H](O)C[C@H](O)C3)CCC[C@]12C |  |  |  |  | Active |  | 1.97 mmol/L | 2.04 mmol/L | 1.8 mmol/L | 2.09 mmol/L
6 | 36 µM | 64 µM |  | 90.4 µM | CNC(=O)C(=O)CCCC[C@@H](C)[C@H]1CC[C@H]2/C(=C/C=C3C[C@@H](O)C[C@H](O)C3)CCC[C@]12C |  |  |  |  | Active |  |  |  |  | 
7 | 14.5 µM | 3 µM | 0.248 µM | 16.5 µM | C[C@H](CCCCC(=O)NO)[C@H]1CC[C@H]2/C(=C/C=C3C[C@@H](O)C[C@H](O)C3)CCC[C@]12C | 1.93 mmol/L | 2.03 mmol/L | 1.93 mmol/L | 2.26 mmol/L | Active | 20 |  |  |  | 
8 | 3.2 µM | 9.3 µM |  |  | C[C@H](CCCC(=O)NO)[C@H]1CC[C@H]2/C(=C/C=C3C[C@@H](O)C[C@H](O)C3)CCC[C@]12C |  |  |  |  |  |  |  |  |  | 
